This note sets out measurements from patent US4734421A, “Anti-inflammatory substituted 2-benzyl-mercapto-imidazole and pyrimidine derivatives compositions and method of use therefor” (Merck & Co., Inc., priority 1986, dated 1988).

For the first assay, the system named is Rat Foot Edema. As to the kind of experiment: Rat Foot Edema Assay (CFE). It counts as in vivo. The following applies: Table 2a, Dosage (μg) 30. The method, then:
(§1) The rat foot edema assay CFE and the topical mouse ear assay were used to evaluate the anti-inflammatory activity of the novel compounds of the present invention. These are established assay for screening non steroridal anti-inflammatory agents.
Representative compounds of formula (I) or (II) were tested according to the well-established procedures of rat foot edema assay published in 1962 by C. A. Winter, E. A. Risley and G. W. Nuss, Proc Soc Exp Biol Med. III, 544 (1962).
Results: The effect of representative compounds on Rat Foot Edema
As to `COc1ccc(O)c(CSc2nc(C)cn2C)c1`, the “Edema (% inhibition)” value was found to be 77%.
On the same count and under the same terms, then `COc1ccc(O)c(CSc2nc(C)c[nH]2)c1`, with 74%; and `COc1ccc(O)c(CSc2nccn2C)c1` [drawing 10], with 74%; and `COc1ccc(O)c(CSc2ncc(C)n2C)c1` [drawing 11], with 54%.
For `COc1ccc(O)c(CSc2nc3ccccc3[nH]2)c1` [drawing 14], the “Edema (% inhibition)” value is reported as 21%.
For the molecule `COc1ccc(O)c(CSc2ncccn2)c1` [drawing 15], the “Edema (% inhibition)” value is given as 3%.

The same assay, now with this note: Table 2b, Dosage (mpk) 30.
By % Inhibition is commonly meant the percentage by which the read-out fell short of the control. Lower therefore signals a weak effect. As to `Cc1cnc(SCc2cc3c(cc2O)CCCO3)n1C`, the “% Inhibition” value came out at 42%.

A further assay has as its system Mouse Ear Edema. The assay is described as follows: Topical Mouse Ear Assay (Mouse Ear Edema). It is filed as in vivo. The following applies: Table 1, Dosage 300 μg, irritant (PMA or AA) not given. As for the experimental part: as §1
The right ears of mice (5 mice per group) were treated topically with either 5μ PMA ([…]) or 1000μ AA alone or with the test compound in 25μ of vehicle. The vehicle was water/pyridine/acetone (1:2:97). A control group of mice received the vehicle only. The mice were allowed food and water ad libitum during the treatment period; 2 hours for AA and 4 hours for PMA. The mice were sacrificed by cervical dislocation and a 6 mm diameter disc of tissue punched from both the treated and untreated ears. The tissue biopsies were immediately weighed and the weight increase of the treated ear relative to the weight of the untreated ear determined.
Results: The effect of representative compounds on Mouse Ear Edema
`COc1ccc(O)c(CSc2nccn2C)c1` [drawing 5]: the “Edema (% inhibition)” value is 45%.
Turning to `COc1ccc(O)c(CSc2ncc(C)n2C)c1` [drawing 6], the “Edema (% inhibition)” value was found to be 65%.
With `COc1ccc(O)c(CSc2nc3ccccc3[nH]2)c1` [drawing 7], the “Edema (% inhibition)” value amounted to 76%.
In the case of `COc1ccc(O)c(CSc2ncccn2)c1` [drawing 8], the “Edema (% inhibition)” value is given as 32%.
